Experimental data as given in patent US20060288450A1, “Plant N-acylethanolamine binding proteins” (Samuel Roberts Noble Foundation, priority 2004, published 2006).

Assays:
[1] = test system: membrane-associated NAE-binding activities; conditions: cited from earlier work; for challenge of [3H]NAE 14:0 binding by CB receptor antagonist: plant membranes
[2] = test system: NAE binding protein (At1g26440); assay: [3H]NAE 14:0 radioligand binding to recombinant At1g26440 protein expressed in E. coli; parameters: species or system Arabidopsis thaliana
Procedure: FIG. 4 Full length cDNAs synthesized through RT-PCR on Arabidopsis total RNA using gene specific primers to At1g26440 were cloned into pTrc His2 expression vector and the recombinant protein over expressed in E. coli Top10 competent cells (Invitrogen, Cat. No. K4400-01 and K4400-40). Positive clones selected on amp-glucose agar plates were analyzed for producing NAE 14:0 binding protein by using [^3H]NAE 14:0 binding assay (Tripathy et al., 2003). Bacterial lysate (L) prepared from pelleted positive clones induced with IPTG for recombinant protein production was used as the protein source. T10-1, T-10-2, T10-3: Positive clones carrying A. thaliana NAE-binding protein (At1g26440); T10-4: Negative clone carrying the gene sequence in reverse orientation; T10-0: Control Top10 cells. Binding assay was performed on cell lysate (L) and the affinity purified (ProBond purification system, Invitrogen) recombinant protein (P) fraction. Histograms represent binding activity (from two studies with four replicates each).
FIG. 5 Saturation binding of [^3H]NAE 14:0 to a candidate NAE binding protein (At1g26440) expressed in E. coli Top10 cell lysate. The candidate NAE binding protein was a full-length, in-frame cDNA. […]
(§1) [^3H]NAE 14:0 radioligand was synthesized from [9,10-^3H(N)]myristic acid (PerkinElmer Life Sciences, Boston) in a modified two step reaction (Hillard et al., 1995; Devane et al., 1992). […] The [^3H]NAE 14:0 formed was further purified and quantified by separating on thin layer chromatography (TLC) and radiometric scanning respectively (Tripathy et al., 2003).
Binding activity of [^3H]NAE 14:0 was carried out with DDM-solubilized microsomes from Arabidopsis (ecotype, columbia) leaves (Tripathy et al., 2003b) or recombinant protein produced in E. coli and solubilized in DDM. […] Unbound ligands were washed off with ice cold binding buffer (75 mM potassium-phosphate buffer, pH 7.2, 300 mM sucrose, 7.5 mM KCl, 0.75 mM EDTA, 0.75 mM EGTA, 0.5 mM ascorbate, 5 mM DTT, and 1.5% BSA) under vacuum and frozen filters were excised into scintillation cocktail for radioactivity estimation.

[3] = test system: Arabidopsis microsomal protein; assay: [3H]NAE 14:0 radioligand binding to Arabidopsis leaf microsomes; parameters: species or system Arabidopsis thaliana; conditions: 5 nM SR144528, [3H]NAE 14:0 50 nM
Procedure: FIG. 1. Analysis of specific binding of [^3H]NAE 14:0 to DDM solubilized (0.2 mM) microsomes (25 μg of protein) isolated from A. thaliana (ecotype Columbia) leaves (150,000×g) with a concentration ranging from 10 to 80 nM. Specific binding was determined by subtracting nonspecific binding (binding in the presence of 1,500× nonradioactive NAE 14:0) values from total radioligand binding values in duplicate assays. Binding affinity and Bmax of [^3H]NAE 14:0 was estimated by fitting the saturation binding data to nonlinear regression analysis for a one-site binding equation using Prism 3.0, Graphpad software, San Diego.
FIG. 7 Microsomes from A. thaliana leaves and affinity purified (P) protein from T10-1 cell lysate were incubated with [^3H]NAE 14:0 (50 nM) in the presence and absence of CB receptor antagonist SR144528 (5 nM) to compare the influence on [3H]NAE binding. Values represent means of triplicate assays from an individual experiment reproduced twice.
as §1, with “1992). In step one, acylchloride is prepared from [3 H]” for “1992).”, “2003). […]” for “2003).”

[4] = test system: defense gene (Phenylalanine-ammonia lyase) expression; conditions: coadministration, leaves; cited from earlier work

Compound: Cc1c(C(=O)NN2CCOCC2)nn(-c2ccc(Cl)cc2Cl)c1-c1ccc(I)cc1 [AM 281]
- challenge of [3H]NAE 14:0 binding by CB receptor antagonist [1]: potently challenged

Compound: CCCCCCCCCCCCCC(=O)NCCO [NAE 14:0]
- affinity of recombinant protein for NAE 14:0 (saturation binding) ([2]; recombinant At1g26440 expressed in E. coli, DDM solubilized): high affinity
- binding activity of [3H]NAE 14:0 (affinity) ([1]; membrane-associated, saturable, in lower nanomolar range): high affinity

Compound: SR144528
- effect on NAE14:0 binding ([2]; 5 nM SR144528, [3H]NAE 14:0 50 nM, recombinant At1g26440 gene product): diminished
- effect on NAE specific binding ([2]; higher concentrations of SR144528 (above 5 nM), preparation not specified): eliminated
- effect on NAE14:0 binding [3]: diminished
- challenge of [3H]NAE 14:0 binding by CB receptor antagonist [1]: potently challenged
- effect on NAE-regulated defense gene expression [4]: blocked
